From the supplement of paper PMC10883282
± gives the standard deviation of the averaged measurements.

System: SK-ES-1
Experiment: relative viability vs DMSO control (72 h) (fraction); higher = more viable cells
Outline: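 Sarcoma cell lines were seeded in 384-well plates at densities set to reach 80–90% confluence. After 24 h, 2.5 µl of serially diluted compound was added (source plates 10 mM to 0.0002 mM), and plates were held 72 h at 37 °C, 5% CO2, with 0.1% DMSO vehicle and a 5 µM positive control. Relative viability came from ATPLite readings as percent growth, averaged over up to triplicate wells. Data were rescaled so full viability equals 1 and none equals 0.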

Row | SMILES | relative viability (0.00017 µM) | relative viability (0.00051 µM) | relative viability (0.00152 µM) | relative viability (0.00457 µM) | relative viability (0.01372 µM) | relative viability (0.04115 µM) | relative viability (0.1235 µM) | relative viability (0.3704 µM) | relative viability (1.111 µM) | relative viability (3.333 µM) | relative viability (10 µM)
1 | O=C(Nc1cnn2ccc(N3CCC[C@@H]3c3cc(F)ccc3F)nc12)N1CC[C@H](O)C1 [Larotrectinib] | 1.01 ± 0.018 | 1.04 ± 0.048 | 1.04 ± 0.026 | 1.04 ± 0.064 | 1.04 ± 0.038 | 1.03 ± 0.053 | 1 ± 0.02 | 1.02 ± 0.062 | 1 ± 0.03 | 0.969 ± 0.034 | 1.03 ± 0.058
2 | COCc1c(-c2cc3cc(C)cc(OC)c3s2)c2c(N)ncnn2c1CN1CCNC(=O)C1 [Rogaratinib] | 1.04 ± 0.043 | 1.03 ± 0.044 | 1.02 ± 0.035 | 1.03 ± 0.049 | 1.07 ± 0.045 | 1.05 ± 0.065 | 0.982 ± 0.062 | 0.97 ± 0.011 | 0.848 ± 0.075 | 0.659 ± 0.027 | 0.463 ± 0.03
3 | Cn1cnc2c(F)c(Nc3ccc(Br)cc3F)c(C(=O)NOCCO)cc21 [Binimetinib] | 1.03 ± 0.019 | 1.02 ± 0.018 | 0.988 ± 0.021 | 0.984 ± 0.058 | 0.95 ± 0.028 | 0.957 ± 0.045 | 0.983 ± 0.036 | 0.923 ± 0.015 | 0.945 ± 0.05 | 0.893 ± 0.027 | 0.861 ± 0.077
4 | Cn1cc(-c2cc3c(N4CCN(c5ncc([C@@](C)(N)c6ccc(F)cc6)cn5)CC4)ncnn3c2)cn1 [Avapritinib] | 0.98 ± 0.026 | 0.981 ± 0.045 | 0.941 ± 0.011 | 1 ± 0.018 | 0.989 ± 0.05 | 0.96 ± 0.042 | 0.948 ± 0.027 | 0.975 ± 0.036 | 0.906 ± 0.018 | 0.778 ± 0.071 | 0.579 ± 0.022
5 | C[C@]1(O)C[C@@H](c2nc(-c3ccc4ccc(-c5ccccc5)nc4c3)c3c(N)nccn32)C1 [Linsitinib] | 1.05 ± 0.039 | 1.05 ± 0.034 | 1.08 ± 0.019 | 1.07 ± 0.051 | 1.03 ± 0.067 | 0.967 ± 0.038 | 0.75 ± 0.026 | 0.479 ± 0.042 | 0.341 ± 0.013 | 0.308 ± 0.013 | 0.21 ± 0.0051
6 | Cc1cc(Nc2ncnc3ccc(NC4=NC(C)(C)CO4)cc23)ccc1Oc1ccn2ncnc2c1 [Tucatinib] | 1.07 ± 0.025 | 1.04 ± 0.043 | 1.06 ± 0.039 | 1.1 ± 0.022 | 1.13 ± 0.064 | 1.06 ± 0.059 | 1.08 ± 0.079 | 1.06 ± 0.019 | 1.01 ± 0.011 | 0.98 ± 0.023 | 0.883 ± 0.017
7 | Nc1cc(C(F)(F)F)c(-c2cc(N3CCOCC3)nc(N3CCOCC3)n2)cn1 [Buparlisib] | 1.03 ± 0.025 | 1 ± 0.052 | 1.02 ± 0.037 | 1.04 ± 0.035 | 1.03 ± 0.029 | 1.04 ± 0.019 | 0.93 ± 0.033 | 0.749 ± 0.035 | 0.157 ± 0.014 | 0.041 ± 0.00093 | 0.0484 ± 0.0029
8 | C[C@@H]1CCN(C(=O)CC#N)C[C@@H]1N(C)c1ncnc2[nH]ccc12 [Tofacitinib] | 1 ± 0.032 | 1.05 ± 0.059 | 1.01 ± 0.023 | 1.03 ± 0.049 | 1.04 ± 0.046 | 1.01 ± 0.056 | 0.997 ± 0.056 | 1.01 ± 0.049 | 0.985 ± 0.081 | 1.03 ± 0.056 | 1.02 ± 0.06
9 | COc1cc2/c(=N/c3ccc(Br)cc3F)nc[nH]c2cc1OCC1CCN(C)CC1 [Vandetanib] | 1 ± 0.03 | 0.992 ± 0.024 | 1.02 ± 0.037 | 1.033 ± 0.0099 | 1.06 ± 0.035 | 0.989 ± 0.051 | 1.008 ± 0.0093 | 0.917 ± 0.033 | 0.762 ± 0.032 | 0.389 ± 0.0099 | 0.0169 ± 0.0022
10 | CCCS(=O)(=O)Nc1ccc(F)c(C(=O)c2c[nH]c3ncc(-c4ccc(Cl)cc4)cc23)c1F [Vemurafenib] | 1.02 ± 0.061 | 1.06 ± 0.043 | 1.08 ± 0.016 | 1.09 ± 0.022 | 1.06 ± 0.043 | 1.03 ± 0.045 | 1.05 ± 0.025 | 1.1 ± 0.011 | 1.04 ± 0.06 | 0.891 ± 0.078 | 0.534 ± 0.16
11 | C=CC(=O)N1CCC([C@@H]2CCNc3c(C(N)=O)c(-c4ccc(Oc5ccccc5)cc4)nn32)CC1 [Zanubrutinib] | 0.906 ± 0.065 | 0.938 ± 0.088 | 0.994 ± 0.05 | 0.984 ± 0.083 | 0.949 ± 0.043 | 0.953 ± 0.029 | 0.934 ± 0.041 | 0.953 ± 0.057 | 0.894 ± 0.069 | 0.903 ± 0.031 | 0.845 ± 0.038
12 | CC(=O)Nc1cccc(-n2c(=O)n(C3CC3)c(=O)c3c(Nc4ccc(I)cc4F)n(C)c(=O)c(C)c32)c1 [Trametinib] | 1.03 ± 0.035 | 1.04 ± 0.025 | 0.987 ± 0.031 | 0.99 ± 0.028 | 0.937 ± 0.077 | 0.984 ± 0.063 | 0.976 ± 0.031 | 0.969 ± 0.048 | 0.962 ± 0.05 | 0.948 ± 0.059 | 0.923 ± 0.017
13 | C=CC(=O)N1CCC[C@@H](n2nc(-c3ccc(Oc4ccccc4)cc3)c3c(N)ncnc32)C1 [Ibrutinib] | 1.008 ± 0.0073 | 1.02 ± 0.054 | 1.02 ± 0.026 | 1.02 ± 0.054 | 1 ± 0.085 | 1.04 ± 0.03 | 1 ± 0.011 | 1.06 ± 0.036 | 1.057 ± 0.0088 | 1.02 ± 0.021 | 0.743 ± 0.043
14 | Cc1ccc(F)c(NC(=O)Nc2ccc(-c3cccc4[nH]nc(N)c34)cc2)c1 [Linifanib] | 1.07 ± 0.098 | 1.07 ± 0.044 | 1.08 ± 0.043 | 1.11 ± 0.025 | 1.09 ± 0.052 | 1.04 ± 0.028 | 1.04 ± 0.038 | 1.05 ± 0.039 | 1.01 ± 0.032 | 0.879 ± 0.17 | 1.03 ± 0.034
15 | CC[C@H](Nc1ncnc2[nH]cnc12)c1nc2cccc(F)c2c(=O)n1-c1ccccc1 [Idelalisib] | 1.06 ± 0.041 | 1.06 ± 0.06 | 1.03 ± 0.024 | 1.08 ± 0.018 | 1.08 ± 0.015 | 1.08 ± 0.051 | 1.04 ± 0.042 | 1.02 ± 0.021 | 1.01 ± 0.056 | 0.905 ± 0.052 | 0.827 ± 0.01
16 | CC(C)(C)c1cc(NC(=O)Nc2ccc(-c3cn4c(n3)sc3cc(OCCN5CCOCC5)ccc34)cc2)no1 [Quizartinib] | 0.995 ± 0.028 | 1.05 ± 0.05 | 1.08 ± 0.014 | 1.1 ± 0.036 | 1.08 ± 0.037 | 1.04 ± 0.011 | 1.08 ± 0.035 | 1.1 ± 0.069 | 0.904 ± 0.033 | 0.674 ± 0.049 | 0.594 ± 0.056
